Laboratory results reported in US20260199231A1, “FLUTICASONE AND VILANTEROL FORMULATION AND INHALER” (KINDEVA DRUG DELIVERY L.P., priority 2018, published 2026).

Assays:
[1] = Next Generation Impactor (NGI) studies, aerodynamic particle size distribution emitted from MDI; format: physicochemical; conditions: HFA-152a; for FPM (fine particle mass, particle size less than 5 micrometers, per actuation) / ISM (impactor sized mass, Cups 2-7, MOC and filter, per actuation) / MMAD (mass median aerodynamic diameter) / Throat hold up (throat assembly content divided by total ex-actuator content): Example 1 MDI: 0.1744% FF, 0.0698% vilanterol trifenatate, mean of three MDIs; for FPM (fine particle mass, particle size less than 5 micrometers, per actuation) / ISM (impactor sized mass, Cups 2-7, MOC and filter, per actuation) / MMAD (mass median aerodynamic diameter): 30 L/minute; for Throat hold up (throat assembly content divided by total ex-actuator content): Emmace anatomical throat
Experimental: The aerodynamic particle size distribution emitted from each MDI was evaluated using a Next Generation Impactor Instrument (MSP Corporation, Shoreview, MN). For each test, an MDI was attached to the throat component (Emmace anatomical throat, Emmace Consulting, Lund, Sweden) of the NGI instrument and actuated 6 times into the instrument. Prior to each actuation the MDI was vigorously shaken. Immediately prior to attachment, the MDI was primed by actuating 4 times. Prior to each priming shot the MDI was vigorously shaken. The flow rate through the instrument during testing was regulated at 30 L/minute. The test sample (fluticasone furoate and vilanterol trifenatate) deposited on the valve stem, actuator, throat assembly (Emmace anatomical throat), individual uncoated collection cups 1-7, micro-orifice collector (MOC), and final filter component was collected by rinsing each individual component with a known volume of collection solvent. The recovered samples were then analyzed for sample content using an HPLC assay with reference to a known standard. An HPLC instrument with a UV detector (220 nm at 0 minutes, 240 nm at 5 minutes) and a symmetry shield RP-18, 4.6-150 mm column (25° C. column temp) was used. The mobile phase was 10 mM SDS, 60:40 (v/v) acetonitrile:50 mM NH4OAc, pH 5.5). The injection volume was 50 microliters and the flow rate was 1.0 mL/min.
Throat hold up was determined as the ratio of the sample content from the throat assembly divided by the total ex-actuator content.
Fine particle mass (FPM) was calculated using CITDAS (Copley Inhaler Testing Data Analysis Software, from Copley Scientific, Nottingham, UK) as the sum of sample content with a particle size less than 5 micrometers (um), reported as micrograms per actuation (mcg/act).
Median mass aerodynamic diameter (MMAD) was calculated using CITDAS (Copley Inhaler Testing Data Analysis Software).
Impactor sized mass (ISM) was determined as the sum of the sample content determined for Cups 2-7, the MOC and the filter, reported as micrograms per actuation (mcg/act).

[2] = Delivered dose study (start of unit life, unit spray collection apparatus, HPLC assay); format: physicochemical; conditions: Example 1 MDI: 0.1744% fluticasone furoate, 0.0698% vilanterol trifenatate, 99.7558% HFA-152a; coated 63 microliter valve; 28.3 L/min
Experimental: The start of unit life delivered dose was determined using standard unit spray collection apparatus (USCA) fitted with a filter. For each determination, an MDI was attached to the USCA using a coupler and actuated a single time. Immediately prior to attachment, the MDI was vigorously shaken. Prior to collection of the test sample, the MDI was primed by actuating four times. Prior to each priming shot the MDI was vigorously shaken. The flow rate through the equipment was regulated to 28.3 L/min+/−0.5 L/min. The test sample deposited in the USCA was collected by rinsing with a known volume of collection solvent. The recovered samples were then analyzed for sample content using an HPLC assay with reference to a known standard. An HPLC instrument with a UV detector (220 nm at 0 minutes, 240 nm at 5 minutes) and a symmetry shield RP18, 150 mm×4.6 mm (3.5 μm) column (temperature 25° C.) was used. The mobile phase was 10 mM SDS (sodium dodecyl sulphate), 60:40 (v/v) acetetonitrile:50 mM NH4OAc (ammonium acetate), pH 5.50. The injection volume was 50 μl and the flow rate was 1.0 mL/min.

[3] = Example 2 MDI: 0.8791 wt. % fluticasone furoate, 0.1758 wt. % vilanterol trifenatate, coated 25 microliter valve
[4] = Example 3 MDI: 0.4396 wt. % fluticasone furoate, 0.0879 wt. % vilanterol trifenatate, 50 microliter valve
[5] = Example 4 MDI: 0.3489 wt. % fluticasone furoate, 0.0698 wt. % vilanterol trifenatate, 63 microliter valve
[6] = Example 5 MDI: 0.2198 wt. % fluticasone furoate, 0.0440 wt. % vilanterol trifenatate, uncoated 100 microliter valve
[7] = Example 6 MDI: 0.4396 wt. % fluticasone furoate, 0.1758 wt. % vilanterol trifenatate, coated 25 microliter valve
[8] = Example 7 MDI: 0.2198 wt. % fluticasone furoate, 0.0879 wt. % vilanterol trifenatate, 50 microliter valve
[9] = Example 8 MDI: 0.1744 wt. % fluticasone furoate, 0.0698 wt. % vilanterol trifenatate, 63 microliter valve
[10] = Example 9 MDI: 0.1099 wt. % fluticasone furoate, 0.0440 wt. % vilanterol trifenatate, uncoated 100 microliter valve

SMILES | FPM (fine particle mass, particle size less than 5 micrometers, per actuation) ([1]; 63 microliter valve) | ISM (impactor sized mass, Cups 2-7, MOC and filter, per actuation) ([1]; 63 microliter valve) | MMAD (mass median aerodynamic diameter) ([1]; 63 microliter valve) | Throat hold up (throat assembly content divided by total ex-actuator content) ([1]; 63 microliter valve) | calculated FPM [1, 3] | calculated MMAD [1, 3] | calculated FPM [1, 4] | calculated MMAD [1, 4] | calculated FPM [1, 5] | calculated MMAD [1, 5] | calculated FPM [1, 6] | calculated MMAD [1, 6] | calculated FPM [1, 7] | calculated MMAD [1, 7] | calculated FPM [1, 8] | calculated MMAD [1, 8] | calculated FPM [1, 9] | calculated MMAD [1, 9] | calculated FPM [1, 10] | calculated MMAD [1, 10] | further results
C[C@@H]1C[C@H]2[C@@H]3C[C@H](F)C4=CC(=O)C=C[C@]4(C)[C@@]3(F)[C@@H](O)C[C@]2(C)[C@@]1(OC(=O)c1ccco1)C(=O)SCF [FF, fluticasone furoate] | 21.6 µg | 29.7 µg | 3.3 um | 70.8% | 104.9 micrograms/actuation | 3.5 micrometers | 69.3 micrograms/actuation | 3.4 micrometers | 55.9 micrograms/actuation | 3.3 micrometers | 45.2 micrograms/actuation | 3.3 micrometers | 41.0 micrograms/actuation | 3.1 micrometers | 26.3 micrograms/actuation | 2.9 micrometers | 23.8 micrograms/actuation | 3.0 micrometers | 19.3 micrograms/actuation | 3.2 micrometers | Start of life dose content uniformity (delivered dose) [2]: 90.9 mcg/actuation
OCc1cc([C@@H](O)CNCCCCCCOCCOCc2c(Cl)cccc2Cl)ccc1O [V, vilanterol] | 9.2 µg | 10.1 µg | 1.9 um | 61.4% | 13.6 micrograms/actuation | 2.6 micrometers | 8.8 micrograms/actuation | 2.7 micrometers | 6.7 micrograms/actuation | 2.3 micrometers | 5.5 micrograms/actuation | 2.5 micrometers | 11.4 micrograms/actuation | 2.1 micrometers | 7.7 micrograms/actuation | 2.2 micrometers | 5.9 micrograms/actuation | 2.3 micrometers | 4.2 micrograms/actuation | 2.6 micrometers | Start of life dose content uniformity (delivered dose) [2]: 23.1 mcg/actuation
